{"source": "patent EP0335545B2", "about": "“Pharmaceutical formulations for parenteral use” (UNIVERSITY OF FLORIDA, priority 1988, dated 1989)", "key": {"[1]": {"experiment": "Preparation of solid freeze-dried HPCD complexes: degree of incorporation", "type": "physicochemical", "method": "An excess of E2-CDS was added and the solution then was purged with helium. The resulting suspension was then sonicated for 30 minutes, filtered through a glass filter (ASTM 10-15M, Pyrex No. 36060) and freeze-dried overnight. Best results were obtained by hard-freezing the aqueous solution of the E2-CDS/HPCD complex for at least 10 hours before lyophilization. The degree of complex formation was determined by dissolving a small amount of the dry complex in methanol and then analyzing by high pressure liquid chromatography (HPLC).\nAn excess of E2-CDS or other CDS was added to a 50% w/w solution of HPCD. The suspension was sonicated for 30 minutes, filtered through 0.45 µm PVDF membranes and freeze-dried. The degree of incorporation was determined either spectrophotometrically or by HPLC. In some cases, the effect of solubilizing agents on the degree of incorporation was examined. This involved adding small amounts of polyoxyethylene 20 cetyl ether (Brij), polyoxyethylene sorbitan monooleate (Tween 80) or ethanol to the aqueous solution prior to lyophilization.\nThe retention time was 5.2 min. Other compounds were assayed spectrophotometrically.\nThe solution was degassed and the suspension was sonicated for 30 minutes, after which it was filtered and the filtrate was lyophilized. The dried filtrate contained 65.6 mg testosterone propionate or 29.6 mg T-CDS1 per gram of cyclodextrin complex. Compounds were analyzed for decomposition by thin-layer chromatography and ultraviolet absorption."}, "[2]": {"experiment": "Solubilizing effect of a 50% w/w solution of HPCD on steroids and CDS", "conditions": "50% w/w aqueous hpcd", "method": "An excess of E2-CDS was sonicated with an aqueous solution of the appropriate solubilizing agent for 30 minutes. The suspension was then centrifuged, filtered through 0.45 µm polyvinylidene difluoride (Millex-HV4, Millipore®) membranes and analyzed by HPLC. […] An estimation of the bulk equilibrium constant was obtained by correlating the millimolarity of E2-CDS solubilized and the millimolarity of the cyclodextrin added. This latter value was calculated using the average molecular weight of the isomeric mixture determined by mass spectroscopy. The solubilizing effect of a 50% w/w solution of HPCD was also examined for a series of steroids and dihydropyridines (CDS). These studies were carried out in a similar manner to those previously described.\nFor the CDS, the wavelength monitored was 360 nm while for estrogen 220 nm was used.\nSeparation was achieved on an Analytical Sciences, Inc. (ASI) 10 µm particle size, C18 reversed phase 30 cm x 3.9 mm i.d. analytical column. The flow rate was 1 mL/min, the compounds were detected at 360 nm and in all determinations the temperature was ambient. […] For the GABA-CDS1, a mobile phase consisting of 50:1:1:48 of the same components was required. […] Other compounds were assayed spectrophotometrically."}, "[3]": {"experiment": "Observation of toxicity on injection (Experiments 1-3)", "type": "in vivo, Male Sprague-Dawley rats", "conditions": "rats", "method": "On day 15 after orchidectomy, rats were ether-anesthetized and the right external jugular vein exposed. Animals were then administered one of the following: testosterone-chemical delivery system (T-CDS1 or T-CDS2), testosterone (Steraloids Inc., Wilton, NH) or the vehicle, dimethyl sulfoxide (DMSO; Fisher Scientific, Fair Lawn, NJ). The testosterone-chemical delivery systems were given at doses equimolar to testosterone (25 mg/kg) so that T-CDS1 was administered at 35.5 mg/kg and rats received T-CDS2 at a dose of 45.1 mg/kg. DMSO was injected at a volume of 1 mL/kg. All compounds were administered by infusion over a 2 minute period. One milliliter of blood was withdrawn from the external jugular vein immediately before giving the drugs (1000 hours) and blood was sampled by cardiac puncture after 6, 12, 24 hours and on days 4 and 7. The sera were separated by centrifugation at 500 x g for 20 min at 4°C and stored at -20°C.\nTwo weeks after orchidectomy, rats were administered either T-CDS1, testosterone propionate (TP; Steraloids Inc.) or DMSO by means of intravenous infusion into the right external jugular vein in an effort to more effectively enhance the brain delivery of testosterone. It has been shown that slow infusion improves brain delivery of drugs attached to the chemical-delivery systems. […]"}}, "data": [{"smiles": "CN1C=CCC(C(=O)O[C@H]2CC[C@H]3[C@@H]4CCC5=CC(=O)CC[C@]5(C)[C@H]4CC[C@]23C)=C1", "note": "[T-CDS1, 17β-[(1,4-dihydro-1-methyl-3-pyridinylcarbonyl)oxy]androst-4-en-3-one]", "values": [{"measurement": "Amount of Drug in Dry Complex", "setting": "[1]; freeze-dried complex from 50% w/w HPCD (ASDS 5.1)", "value": 29.0, "unit": "mg/g"}, {"measurement": "drug content of dried filtrate", "setting": "[1]; lyophilized from 50% w/v aqueous HPCD, degree of substitution 5.1", "value": "29.6 mg per gram of cyclodextrin co"}, {"measurement": "solubility", "setting": "[2]", "value": 17.1, "unit": "mg/mL"}, {"measurement": "toxicity on administration", "setting": "[3]; DMSO vehicle, i.v. injection or infusion", "value": "respiratory distress and/or death"}, {"measurement": "toxicity on administration", "setting": "[3]; complexed with HPCD, tail vein injection", "value": "No respiratory distress or animal loss"}]}]}
